“Also recorded” adds a separate entry of the source. Where a SMILES comes first, the peptide text is derived from it. The star is where a group is joined. Fmoc = O=C(OCC1c2ccccc2-c2ccccc21)*; Cbz = O=C(OCc1ccccc1)*
What was measured:
[1] = Self-assembly of TPSs into nanofibers, electron microscopy (TEM/SEM); assay type: physicochemical; settings: for Diameter of TPS nanofibers / self-assembly into ordered nanofibers: TEM; for Diameter of TPS nanofibers: solvent switching DMSO to water; for self-assembly into ordered nanofibers: 5 mg/ml (1 mg/ml TPS8, TPS9)
Experimental: Lyophilized peptides were dissolved in DMSO to a concentration of 100 mg/ml and then diluted in DDW to the indicated final concentration.
Transmission electron microscopy (TEM) analysis was performed by applying 10 μl of samples to a 200 or 400-mesh copper grids covered by carbon-stabilized Formvar film (SPI, West Chester, Pa.). The samples were allowed to adsorb for 2 minutes before excess fluid was blotted off. Samples were negatively stained by depositing 10 μl of 2% uranyl acetate on the grid and allowing it to adsorb for 2 minutes before excess fluid was blotted off. Except the sample in FIG. 9E, all samples were negatively stained. TEM micrographs were recorded using a JEOL 1200EX or JEOL JEM-1400Plus electron microscope operating at different kV.
Scanning Electron Microscopy (SEM) samples were prepared as described above for TEM on a 400-mesh copper grids, without uranyl acetate staining, and viewed using FBI Magellan™ 400L system.

cathepsin L = target: T1, cathepsin L (Homo sapiens, UniProt P07711); assay: Cleavage of substrate peptides by cathepsin L, fragment analysis by LC-MS; assay type: biochemical; settings: 3 hours at 37° C., pH 5.5, LC-MS fragment analysis
T1 construct: made in house; host or cells: E. coli BL21(DE3)pLysS
T1 sequence (P07711 18-333 limits assumed): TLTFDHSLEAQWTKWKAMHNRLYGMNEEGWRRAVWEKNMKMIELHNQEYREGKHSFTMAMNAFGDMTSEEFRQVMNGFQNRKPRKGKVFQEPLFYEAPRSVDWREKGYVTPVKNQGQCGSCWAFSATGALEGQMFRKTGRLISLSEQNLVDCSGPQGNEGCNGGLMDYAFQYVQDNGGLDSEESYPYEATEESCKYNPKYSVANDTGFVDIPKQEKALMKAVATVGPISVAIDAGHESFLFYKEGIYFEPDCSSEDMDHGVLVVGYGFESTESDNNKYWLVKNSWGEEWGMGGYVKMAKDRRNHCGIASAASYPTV
Experimental: (§1) Each peptide (1 nmole) was treated with […] cathepsin B or cathepsin L (generated by transformation of E. coli BL21(DE3)pLysS strain with the pET3a/procathepsin B or procathepsin L vectors) or acetate buffer vehicle (50 mM acetate, 5 mM MgCl2, 2 mM DTT, adjusted to pH 5.5) for 3 hours at 37° C. Next, enzymes were precipitated by an hour incubation at −80° C. in 80% cold methanol followed by 10 minutes of 6000 g centrifugation at 4° C. Supernatant volume was reduced to about 15 μl under vacuum, adjusted to a final volume of 30 μl with methanol and analyzed by LCMS equipped with C18 reverse phase.

cathepsin B [2] = target: T2, cathepsin B (Homo sapiens, UniProt P07858); assay: Cleavage of substrate peptides by cathepsin B, fragment analysis by LC-MS; assay type: biochemical; settings: 3 hours at 37° C., pH 5.5, LC-MS fragment analysis
T2 construct: made in house; host or cells: E. coli BL21(DE3)pLysS
Experimental: as §1

[3] = Kinetics of TPS4 self-assembly by turbidity; assay type: physicochemical; settings: 0.5, 1 or 2 mg/ml, 37° C., first 5 hours
Experimental: Freshly prepared aliquots of 0.5, 1 or 2 mg/ml of TPS4 were placed in triplicates in a 96-well plate, 100 ul/well. Plate was placed at 37° C. in a Biotek Cytation 3 plate reader (Winooski, Vt., USA) and absorbance at 350 nm was measured every 2 minutes during 5 hours.

[4] = tested on: lysates from mice muscles; assay: Nanofibers degradation by mice muscle lysates; assay type: biochemical; settings: 0.5 mg/ml TPS4, mice muscle lysates, first ten hours
Experimental: (§2) Tissue lysates were prepared as previously described. Assembly of TPS4 in triplicates was performed for 4 hours in acetate buffer as described in FIG. 6B. Next, 100 μg of lysates from 4T1 tumor or muscles, or RIPA vehicle control (1% Tergitol-type NP-40 (nonyl phenoxypolyethoxylethanol), 0.1% SDS, 0.5% sodium deoxycholate) were added in acetate buffer. The absorbance was read at 350 nm after gentle shaking at 37° C. for indicated times using a BioTek plate reader.

cathepsin B [5] = target: T2, cathepsin B; assay: Turbidity analysis of TPS4 nanofiber degradation by cathepsin B; assay type: biochemical; settings: 0.5, 1 and 2 mg/ml TPS4, 37° C.
Experimental: Turbidity analysis for TPS4 solutions was conducted using triplicates of freshly prepared solutions as described above in a 96 well plate. Aliquots of 1, 2 or 4 mg/ml were allowed to assemble for 4-5 hours at room temperature. Next, 0.064, 0.128 or 0.255 μM of cathepsin B or acetate buffer vehicle were added, diluting the samples to 0.5, 1, and 2 mg/ml, respectively. The plate was placed at 37° C. in a Biotek Synergy HT plate reader (Winooski, Vt., USA) and absorbance was measured for 12 hours as described above. After 24 hours since enzyme addition, a color picture was taken and the turbidity was measured again.

MDA-MB 231 cells = assay: TPS4 nanofibers cytotoxicity, methylene blue assay; assay type: cell-based, human; settings: 0.5 mg/ml nanofibers, 24 or 48 hours
Experimental: MDA-MB 231 human breast adenocarcinoma cells were cultured in Dulbecco's modified eagle's medium (DMEM) supplemented with 10% fetal bovine serum (FBS), 1% penicillin and 1% streptomycin in a humidified atmosphere of 5% CO2 at 37° C. One day prior to treatment MDA-MB 231 cells (7×10^3 cells/well) were cultured in a 96-well plate. The media of TPS4 that was assembled in DMEM was removed by centrifugation (14,000 rpm, 4° C.) and the nanofibers were resuspended in DMEM supplemented with 10% […], 1% penicillin and 1% streptomycin. Cells in triplicates were incubated with 0.5 mg/ml of TPS4 nanofibers (final concentration of 0.1% DMSO was kept constant) in growth medium at 37° C. After 24 or 48 hours of treatment, cell survival was determined by standard methylene blue assay.

4T1 tumor lysates = assay: Nanofibers degradation by 4T1 tumor lysates; assay type: biochemical, mice
Experimental: as §2

Row | Diameter of TPS nanofibers [1] [nm] | Number of amino acids removed from each TPS after cathepsin treatment, Cat L (cathepsin L) | Number of amino acids removed from each TPS after cathepsin treatment, Cat B (cathepsin B [2]) | Molecule | other results
1 | 13 ± 4 |  |  | Fmoc-FFKF-NH2 [TPS9] | 
2 |  | 2 | 1 | Ac-FFKF-amide [TPS7] | self-assembly into ordered nanofibers [1]: excluding
3 | 66 ± 13 | 1 | 1 | Fmoc-Phe-Lys-Phe-NH2 [TPS5] | 
4 | 30 ± 6 | 2 |  | Cbz-FFKF-NH2 [TPS8] | 
5 | 24 ± 6 | 2 | 2 | NCCCC[C@H](NC(=O)[C@H](Cc1ccccc1)NC(=O)[C@H](Cc1ccccc1)NC(=O)OCc1ccccc1)C(=O)N[C@@H](Cc1ccccc1)C(=O)O [TPS4, Cbz-FFKF-OH] (Cbz-FFKF-OH) | increase in turbidity (absorbance at 350 nm) during self-assembly [3]: up to 2.8±0.6 folds; nanofiber degradation over time [4]: limited effect; degradation of assembled nanofibers by cathepsin B (turbidity at 350 nm) (cathepsin B [5]): significant and robust degradation; time to form fibers upon assembly initiation ([1]; microscopic examination (data not shown)): instantly formed fibers; cytotoxicity / growth inhibition (MDA-MB 231 cells): no growth inhibition; also recorded: no cytotoxicity; nanofiber degradation over time (4T1 tumor lysates; 0.5 mg/ml TPS4, 4T1 tumor lysates, turbidity at 350 nm): degraded the majority of TPS4 nanofibers within two hours; remaining nanofibers relative to vehicle (absorbance at 350 nm) (4T1 tumor lysates; overnight lysate treatment, all concentrations tested): less than 20%; nanofiber degradation at the lowest concentration (4T1 tumor lysates; overnight lysate treatment, lowest TPS4 concentration): full degradation
6 |  | 2 | 1 | NH2-FFKF-amide [TPS6] | self-assembly into ordered nanofibers [1]: excluding

Row | Molecule | Diameter of TPS nanofibers [1] [nm] | Number of amino acids removed from each TPS after cathepsin treatment, Cat L (cathepsin L) | Number of amino acids removed from each TPS after cathepsin treatment, Cat B (cathepsin B [2]) | other results
7 | Fmoc-FFKF-OH (SMILES NCCCC[C@H](NC(=O)[C@H](Cc1ccccc1)NC(=O)[C@H](Cc1ccccc1)NC(=O)OCC1c2ccccc2-c2ccccc21)C(=O)N[C@@H](Cc1ccccc1)C(=O)O) [TPS3] | 14 ± 2 | 2 |  | 
8 | Ac-FFKF-OH [TPS2] | 12 ± 1 | 2 | 2 | 
9 | NH2-FFKF-OH (H-FFKF-OH) [TPS1] | 310 ± 80 | 2 | 1 | 
